These results are taken from patent US10188634B2, “3-(3H-imidazo[4,5-C]pyridin-2-yl)-1 H-pyrazolo[4,3-B]pyridines and therapeutic uses thereof” (Samumed, LLC, priority 2015, dated 2019).

What is called inhibition is the change of the read-out against control, counted positive when it falls.

Bounds are passed on as bounds.

For experiment [1], the system named is Wnt activity (Sp5-Luc reporter, human Sp5 promoter with eight TCF/LEF binding sites) in SW480 colon carcinoma cells. The experiment is described as follows: Screening assay for Wnt activity: Sp5-Luc reporter gene assay in SW480 cells. The conditions noted are these: for inhibition at 10 µM: read-out: percent inhibition at 10 μM (given for EC50 of >10 μM); for EC50: 10-point dose-response starting from 10 μM, overnight incubation. Format: cell-based. An outline of the steps: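 SW480 cells stably carrying Sp5-Luc reporter (eight TCF/LEF sites) plated at 4,000/well in 1% FBS medium with compound (10-point 1:3 series from 10 μM, 0.1% DMSO) overnight at 37 °C. BrightGlo luminescence normalized to DMSO; EC50 by four-parameter fit, else % inhibition at 10 μM.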

Experiment [2] concerns primary human mesenchymal stem cells (hMSCs). The experiment is described as follows: Induction of chondrogenesis in primary human mesenchymal stem cells (hMSCs), nodule imaging with Rhodamine B / Nile Red. The class given is cell-based. The conditions noted are these: for Emax: hMSCs chondrogenesis, TGF-β3 (10 ng/mL) as positive control, read-out: Max. Activity as % TGF-β3 activity; for EC50: hMSCs, concentration required to induce 50% levels of chondrogenesis vs TGF-β3 positive control, read-out: Conc (nM) of 50% TGF-β3 activity. The procedure:
Representative compounds were screened using primary human mesenchymal stem cells (hMSCs) to determine their ability to induce chondrogenesis (process by which cartilage is developed).
Human Mesenchymal Stem Cell Culture: Primary human mesenchymal stem cells (hMSCs) were purchased from Lonza (Walkersville, Md.) and expanded in Mesenchymal Stem Cell Growth Media (Lonza). Cells between passage 3 and 6 were used for the experiments.
Compound Screening: Each compound was dissolved in DMSO as a 10 mM stock and used to prepare compound source plates. For the 96 well assay, serial dilution (1:3, 6-point dose-response curves from 2700 nM to 10 nM) and compound transfer was performed using the ECHO 550 (Labcyte, Sunnyvale, Calif.) into 96-well clear bottom assay plates (Greiner Bio-One) with appropriate DMSO backfill for a final DMSO concentration of 0.03%. hMSCs were plated at 20,000 cells/well in 250 μL/well Incomplete Chondrogenic Induction Medium (Lonza; DMEM, dexamethasone, ascorbate, insulin-transferrin-selenium [ITS supplement], gentamycin-amphotericin [GA-1000], sodium pyruvate, proline and L-glutamine). TGF-β3 (10 ng/mL) was used as a positive control for differentiation while negative control wells were treated with 75 nL DMSO for normalization and calculating EC50 values. For the 384 well assay, serial dilution (1:3, 8-point dose-response curves from 5000 nM to 2.2 nM) and compound transfer was performed using the ECHO 550 (Labcyte, Sunnyvale, Calif.) into 384-well clear bottom assay plates (Greiner Bio-One) with appropriate DMSO backfill for a final DMSO concentration of 0.03%. hMSCs were plated at 8,000 cells/well in 80 μL/well Incomplete Chondrogenic Induction Medium (Lonza; DMEM, dexamethasone, ascorbate, insulin-transferrin-selenium [ITS supplement], gentamycin-amphotericin [GA-1000], sodium pyruvate, proline and L-glutamine). TGF-β3 (10 ng/mL) was used as a positive control for differentiation while negative control wells were treated with 25 nL DMSO for normalization and calculating EC50 values. Cells were incubated at 37° C. and 5% CO2 for 6 days. To image chondrogenic nodules, the cells were fixed using 4% formaldehyde (Electron Microscopy Sciences), and stained with 2 μg/mL Rhodamine B (Sigma-Aldrich) and 20 μM Nile Red (Sigma-Aldrich) [Johnson K., et.al, A Stem Cell-Based Approach to Cartilage Repair, Science, (2012), 336(6082). 717-721]. The nodules imaged (25 images per well for 96 well plates and 9 images per well for 384 well plates at 10× magnification) by excitation at 531 nm and emission at 625 nm and quantified using the CellInsight CX5 (Thermo Scientific). Area of nodules in each well was normalized to the average of 3 DMSO treated wells on the same plate using Excel (Microsoft Inc.). The normalized averages (fold change over DMSO) of 2 or 3 replicate wells for each compound concentration were calculated. Due to solubility limitations of some of the compounds, curve fitting was incomplete leading to inaccurate EC50 determinations.
Using TGF-β3 as a positive control, the concentration of representative compounds required to induce 50% levels of chondrogenesis is reported. In addition, the maximum activity of each compound and the respective dose that each compound reached maximum chondrogenesis activity is reported.

Turning to `CN(C)Cc1cncc(-c2ccc3[nH]nc(-c4nc5c(N6CCCCC6)cncc5[nH]4)c3n2)c1` [Compound 181, N,N-Dimethyl-1-(5-(3-(7-(piperidin-1-yl)-3H-imidazo[4,5-c]pyridin-2-yl)-1H-pyrazolo[4,3-b]pyridin-5-yl)pyridin-3-yl)methanamine], in experiment [1], the inhibition at 10 µM was 33.1% and the EC50 was more than 10 µM. In addition, in experiment [2], the Emax is 84% and the EC50 came to 900 nM.

Regarding `CC(C)C(=O)Nc1cncc(-c2ccc3[nH]nc(-c4nc5c(-c6ccccc6F)cncc5[nH]4)c3n2)c1` [Compound 65, N-(5-(3-(7-(2-fluorophenyl)-3H-imidazo[4,5-c]pyridin-2-yl)-1H-pyrazolo[4,3-b]pyridin-5-yl)pyridin-3-yl)isobutyramide], in experiment [1], the inhibition at 10 µM was determined as 1% and the EC50 is more than 10 µM. In experiment [2], the Emax was 181% and the EC50 was found to be 10 nM.

Consider `Fc1cccc(-c2cncc3[nH]c(-c4n[nH]c5ccc(-c6cncc(OC7CCNCC7)c6)nc45)nc23)c1` [Compound 484, 3-(7-(3-Fluorophenyl)-3H-imidazo[4,5-c]pyridin-2-yl)-5-(5-(piperidin-4-yloxy)pyridin-3-yl)-1H-pyrazolo[4,3-b]pyridine], for which, in experiment [1], the inhibition at 10 µM was found to be 24% and the EC50 is more than 10 µM. In experiment [2], the Emax came out at 82% and the EC50 was 7 nM.

For `NC1CN(c2cncc(-c3ccc4[nH]nc(-c5nc6c(-c7cccc(F)c7)cncc6[nH]5)c4n3)n2)C1` [Compound 482, 1-(6-(3-(7-(3-Fluorophenyl)-3H-imidazo[4,5-c]pyridin-2-yl)-1H-pyrazolo[4,3-b]pyridin-5-yl)pyrazin-2-yl)azetidin-3-amine], in experiment [1], the inhibition at 10 µM turned out to be 21% and the EC50 was more than 10 µM. In experiment [2], the Emax turned out to be 56% and the EC50 stood at 7 nM.

As for `COc1cccc(-c2cncc3[nH]c(-c4n[nH]c5ccc(-c6cncc(NC(=O)C7CCCCC7)c6)nc45)nc23)c1` [Compound 967, N-(5-(3-(7-(3-Methoxylphenyl)-3H-imidazo[4,5-c]pyridin-2-yl)-1H-pyrazolo[4,3-b]pyridin-5-yl)pyridin-3-yl)cyclohexanecarboxamide], in experiment [1], the inhibition at 10 µM came to 0% and the EC50 is more than 10 µM. Moreover, in experiment [2], the Emax was 80% and the EC50 amounted to 10 nM.

With `O=C(Nc1cncc(-c2ccc3[nH]nc(-c4nc5c(-c6ccc(F)cc6)cncc5[nH]4)c3n2)c1)C1CCC1` [Compound 49, N-(5-(3-(7-(4-Fluorophenyl)-3H-imidazo[4,5-c]pyridin-2-yl)-1H-pyrazolo[4,3-b]pyridin-5-yl)pyridin-3-yl)cyclobutanecarboxamide], in experiment [1], the inhibition at 10 µM turned out to be 44% and the EC50 is more than 10 µM. In addition, the Emax in experiment [2] is 33%.

Turning to `Fc1cccc(-c2cncc3[nH]c(-c4n[nH]c5ccc(C6CCNCC6)nc45)nc23)c1` [Compound 477, 3-(7-(3-Fluorophenyl)-3H-imidazo[4,5-c]pyridin-2-yl)-5-(piperidin-4-yl)-1H-pyrazolo[4,3-b]pyridine], in experiment [1], the inhibition at 10 µM turned out to be 20% and the EC50 was more than 10 µM. Further, the Emax in experiment [2] came out at 43%.

As for `CCC(=O)Nc1cncc(-c2ccc3[nH]nc(-c4nc5c(-c6cccc(F)c6)cncc5[nH]4)c3n2)c1` [Compound 1, N-(5-(3-(7-(3-Fluorophenyl)-3H-imidazo[4,5-c]pyridin-2-yl)-1H-pyrazolo[4,3-b]pyridin-5-yl)pyridin-3-yl)propionamide], in experiment [1], the inhibition at 10 µM stood at 12.3% and the EC50 was more than 10 µM. Further, in experiment [2], the Emax was 580% and the EC50 stood at 1670 nM.

On to `Fc1cccc(-c2cncc3[nH]c(-c4n[nH]c5ccc(-c6cnccn6)nc45)nc23)c1` [Compound 492, 3-(7-(3-Fluorophenyl)-3H-imidazo[4,5-c]pyridin-2-yl)-5-(pyrazin-2-yl)-1H-pyrazolo[4,3-b]pyridine], for which, in experiment [1], the inhibition at 10 µM was 13% and the EC50 was more than 10 µM. Besides, in experiment [2], the Emax worked out at 67% and the EC50 is 2 nM.

For `Cc1cnc(-c2ccc3[nH]nc(-c4nc5c(-c6cccc(F)c6)cncc5[nH]4)c3n2)s1` [Compound 1082, 2-(3-(7-(3-Fluorophenyl)-3H-imidazo[4,5-c]pyridin-2-yl)-1H-pyrazolo[4,3-b]pyridin-5-yl)-5-methylthiazole], in experiment [1], the inhibition at 10 µM was determined as 27% and the EC50 was more than 10 µM. For the same molecule, in experiment [2], the Emax is 45%.

Regarding `CCNCc1cncc(-c2ccc3[nH]nc(-c4nc5c(-c6ccccn6)cncc5[nH]4)c3n2)c1` [Compound 146, N-((5-(3-(7-(Pyridin-2-yl)-3H-imidazo[4,5-c]pyridin-2-yl)-1H-pyrazolo[4,3-b]pyridin-5-yl)pyridin-3-yl)methyl)ethanamine], in experiment [1], the inhibition at 10 µM was 14.2% and the EC50 is more than 10 µM. Further, the Emax in experiment [2] was found to be 50%.

For `CCC(=O)Nc1cncc(-c2ccc3[nH]nc(-c4nc5c(N6CCCCC6)cncc5[nH]4)c3n2)c1` [Compound 169, N-(5-(3-(7-(Piperidin-1-yl)-3H-imidazo[4,5-c]pyridin-2-yl)-1H-pyrazolo[4,3-b]pyridin-5-yl)pyridin-3-yl)propionamide], in experiment [1], the inhibition at 10 µM came to 2.3% and the EC50 was more than 10 µM. Besides, in experiment [2], the Emax turned out to be 70% and the EC50 was 900 nM.

For the molecule `Cc1cn(-c2cncc3[nH]c(-c4n[nH]c5ccc(-c6cncc(NC(=O)C7CCC7)c6)nc45)nc23)cn1` [Compound 217, N-(5-(3-(7-(4-Methyl-1H-imidazol-1-yl)-3H-imidazo[4,5-c]pyridin-2-yl)-1H-pyrazolo[4,3-b]pyridin-5-yl)pyridin-3-yl)cyclobutanecarboxamide], in experiment [1], the inhibition at 10 µM was 6.7% and the EC50 is more than 10 µM. The Emax in experiment [2] came out at 47%.

In the case of `Cc1ccncc1-c1ccc2[nH]nc(-c3nc4c(-c5ccncc5)cncc4[nH]3)c2n1` [Compound 117, 5-(4-Methylpyridin-3-yl)-3-(7-(pyridin-4-yl)-3H-imidazo[4,5-c]pyridin-2-yl)-1H-pyrazolo[4,3-b]pyridine], in experiment [1], the inhibition at 10 µM worked out at 23.1% and the EC50 is more than 10 µM. Besides, in experiment [2], the Emax worked out at 68% and the EC50 is 30 nM.

In the case of `Cn1cc(-c2ccc3[nH]nc(-c4nc5c(-c6cccc(F)c6)cncc5[nH]4)c3n2)cn1` [Compound 480, 3-(7-(3-Fluorophenyl)-3H-imidazo[4,5-c]pyridin-2-yl)-5-(1-methyl-1H-pyrazol-4-yl)-1H-pyrazolo[4,3-b]pyridine], in experiment [1], the inhibition at 10 µM is 13% and the EC50 is more than 10 µM. The Emax in experiment [2] came to 49%.

For the molecule `Cc1cn(-c2cncc3[nH]c(-c4n[nH]c5ccc(-c6cncc(NC(=O)CC(C)C)c6)nc45)nc23)cn1` [Compound 198, 3-Methyl-N-(5-(3-(7-(4-methyl-1H-imidazol-1-yl)-3H-imidazo[4,5-c]pyridin-2-yl)-1H-pyrazolo[4,3-b]pyridin-5-yl)pyridin-3-yl)butanamide], in experiment [1], the inhibition at 10 µM was 1.8% and the EC50 was more than 10 µM. For the same molecule, in experiment [2], the Emax was 59% and the EC50 was 100 nM.

`CCNCc1cncc(-c2ccc3[nH]nc(-c4nc5c(-c6ccoc6)cncc5[nH]4)c3n2)c1` [Compound 286, N-((5-(3-(7-(Furan-3-yl)-3H-imidazo[4,5-c]pyridin-2-yl)-1H-pyrazolo[4,3-b]pyridin-5-yl)pyridin-3-yl)methyl)ethanamine]: in experiment [1], the inhibition at 10 µM amounted to 37.4% and the EC50 is more than 10 µM. Also, in experiment [2], the Emax came to 29%.
